Results published in patent US7265152B2 (ViroPharma Incorporated, priority 2002, dated 2007).
Where two headings read alike, the source gives them in different places.

Experiments:
[1] = system: HCV replicon (BB7 sequence) in Huh-7-Clone A cells; experiment: HCV replicon assay: ELISA of NS5A protein in replicon-containing cells (Inhibition of Viral RNA Replication); format: cell-based; details: Hepatitis C virus
How it was run: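 EC50 taken from an 8-point serially diluted dose curve, with NS5A level as read-out: fixed cells probed with primary monoclonal and HRP-conjugated secondary, TMB developed 30 min, OD 650 nm. Compound exposure 72 h in Huh-7-Clone A replicon cells (BB7 sequence).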

[2] = target: T1, HCV NS5B (Hepatitis C virus genotype 1b, UniProt Q9WMX2); experiment: Inhibition of viral RNA-dependent RNA polymerase (RdRp), in vitro biochemical assay; parameters: species or system HCV genotype 1b virus (BB7); details: HCV NS5B RdRp, BB7; class symbols A-D; read-out: HCV pol-BB7 IC50
T1 construct: fusion protein, of which the carboxyl terminal 21 amino acids were removed to enhance its solubility; His tag (GSHHHHHH); made in house; host or cells: E. coli
How it was run: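 IC50 values are the concentrations that halve in vitro RNA synthesis by HCV NS5B polymerase. The enzyme was a C-terminally truncated (Δ21), His-tagged genotype 1b (BB7 consensus) protein purified from E. coli.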

[3] = HCV replicon assay, ranges of EC50, read-out: Replicon

Structure (SMILES): CNC(=O)c1c(-c2ccc(F)cc2)oc2cc(N(Cc3cscn3)S(C)(=O)=O)c(OC)cc12 [Example 291, 2-(4-Fluoro-phenyl)-6-(methanesulfonyl-thiazol-4-ylmethyl-amino)-5-methoxy-benzofuran-3-carboxylic acid methylamide]
- EC50 [1, 3]: < 1 µM
- IC50 [2]: ≤ 500 nM

Structure (SMILES): CNC(=O)c1c(-c2ccc(F)cc2)oc2cc(N(Cc3nc(C(=O)O)cs3)S(C)(=O)=O)c(OC(C)C)cc12 [Example 292, 2-({[2-(4-Fluoro-phenyl)-5-isopropoxy-3-methylcarbamoyl-benzofuran-6-yl]-methanesulfonyl-amino}-methyl)-thiazole-4-carboxylic acid]
- EC50 [1, 3]: > 100 µM
- IC50 [2]: ≤ 500 nM

Structure (SMILES): CNC(=O)c1c(-c2ccc(F)cc2)oc2cc(N3CCOCC3)c(OCc3ccc4c(c3)C(=O)OC(C)(C)O4)cc12 [Example 293]
- EC50 ([1]; read-out: Replicon (μM)): < 10 µM
- IC50 [2]: 500 to 5000 nM

Structure (SMILES): CCN(c1cc2oc(-c3ccc(F)cc3)c(C(=O)NC)c2cc1OCc1ccc2c(c1)C(=O)OC(C)(C)O2)S(C)(=O)=O [Example 294]
- EC50 ([1]; read-out: Replicon (μM)): < 1 µM
- IC50 [2]: ≤ 500 nM

Structure (SMILES): CCN(c1cc2oc(-c3ccc(F)cc3)c(C(=O)NC)c2cc1O)S(C)(=O)=O [Example 297, 6-(Ethyl-methanesulfonyl-amino)-2-(4-fluoro-phenyl)-5-hydroxy-benzofuran-3-carboxylic acid methylamide]
- EC50 [1, 3]: < 10 µM
- IC50 [2]: ≤ 500 nM

Structure (SMILES): CNC(=O)c1c(-c2ccc(F)cc2)oc2cc(N(C)S(C)(=O)=O)c(OC(F)F)cc12 [Example 298, 5-Difluoromethoxy-2-(4-fluoro-phenyl)-6-(methanesulfonyl-methyl-amino)-benzofuran-3-carboxylic acid methylamide]
- EC50 [1, 3]: < 1 µM
- IC50 [2]: ≤ 500 nM

Structure (SMILES): CNC(=O)c1c(-c2ccc(F)cc2)oc2cc(N(Cc3ccncc3)S(C)(=O)=O)c(OC)cc12 [Example 299, 2-(4-Fluoro-phenyl)-6-(methanesulfonyl-pyridin-4-ylmethyl-amino)-5-methoxy-benzofuran-3-carboxylic acid methylamide]
- EC50 [1, 3]: < 1 µM
- IC50 [2]: ≤ 500 nM

Structure (SMILES): CNC(=O)c1c(-c2ccc(F)cc2)oc2cc(C(C)(C)O)c(C)cc12 [Example 300, 2-(4-Fluoro-phenyl)-6-(1-hydroxy-1-methyl-ethyl)-5-methyl-benzofuran-3-carboxylic acid methylamide]
- EC50 [1, 3]: < 10 µM
- IC50 [2]: ≤ 500 nM

Structure (SMILES): CNC(=O)c1c(-c2ccc(F)cc2)oc2cc(C(C)=O)c(C)cc12 [Example 301, 6-Acetyl-2-(4-fluoro-phenyl)-5-methyl-benzofuran-3-carboxylic acid methylamide]
- EC50 [1, 3]: < 10 µM
- IC50 [2]: ≤ 500 nM

Structure (SMILES): CNC(=O)c1c(-c2ccc(F)cc2)oc2cc(N(C)S(C)(=O)=O)c(OCc3ccc4c(c3)OC(C)(C)OC4=O)cc12 [Example 302, 5-(2,2-Dimethyl-4-oxo-4H-benzo[1,3]dioxin-7-ylmethoxy)-2-(4-fluoro-phenyl)-6-(methanesulfonyl-methyl-amino)-benzofuran-3-carboxylic acid methylamide]
- EC50 [1, 3]: < 1 µM
- IC50 [2]: ≤ 500 nM

Structure (SMILES): CNC(=O)c1c(-c2ccc(F)cc2)oc2cc(C(C)N(C)S(C)(=O)=O)c(OC)cc12 (stereo not shown) [Example 303, 2-(4-Fluoro-phenyl)-6-[1-(methanesulfonyl-methyl-amino)-ethyl]-5-methoxy-benzofuran-3-carboxylic acid methylamide]
- EC50 [1, 3]: < 1 µM
- IC50 [2]: ≤ 500 nM

Structure (SMILES): CNC(=O)c1c(-c2ccc(F)cc2)oc2cc(C(C)NC)c(OC)cc12 (stereo not shown) [Example 304, 2-(4-Fluoro-phenyl)-5-methoxy-6-(1-methylamino-ethyl)-benzofuran-3-carboxylic acid methylamide]
- EC50 [1, 3]: > 30 µM
- IC50 [2]: 500 to 5000 nM

Structure (SMILES): CNC(=O)c1c(-c2ccc(F)cc2)oc2cc(N(C)S(C)(=O)=O)c(OCc3ccc(C(=O)OC)cc3)cc12 [Example 305, 4-[2-(4-Fluoro-phenyl)-6-(methanesulfonyl-methyl-amino)-3-methylcarbamoyl-benzofuran-5-yloxymethyl]-benzoic acid methyl ester]
- EC50 [1, 3]: < 1 µM
- IC50 [2]: ≤ 500 nM

Structure (SMILES): CNC(=O)c1c(-c2ccc(F)cc2)oc2cc(N(C)S(C)(=O)=O)c(OCc3cccc(C(=O)OC)c3)cc12 [Example 306]
- EC50 ([1]; read-out: Replicon (μM)): < 1 µM
- IC50 [2]: ≤ 500 nM

Structure (SMILES): CNC(=O)c1c(-c2ccc(F)cc2)oc2cc(N(CCF)S(C)(=O)=O)c(OC)cc12 [Example 307, 6-[(2-Fluoro-ethyl)-methanesulfonyl-amino]-2-(4-fluoro-phenyl)-5-methoxy-benzofuran-3-carboxylic acid methylamide]
- EC50 [1, 3]: < 1 µM
- IC50 [2]: ≤ 500 nM

Structure (SMILES): CNC(=O)c1c(-c2ccc(F)cc2)oc2cc(N(CC(F)(F)F)S(C)(=O)=O)c(OC)cc12 [Example 308, 2-(4-Fluoro-phenyl)-6-[methanesulfonyl-(2,2,2-trifluoro-ethyl)-amino]-5-methoxy-benzofuran-3-carboxylic acid methylamide]
- EC50 [1, 3]: < 1 µM
- IC50 [2]: ≤ 500 nM

Structure (SMILES): CNC(=O)c1c(-c2ccc(F)cc2)oc2cc(C3CCCN3S(C)(=O)=O)c(OC)cc12 (stereo not shown) [Example 309, 2-(4-Fluoro-phenyl)-6-(1-methanesulfonyl-pyrrolidin-2-yl)-5-methoxy-benzofuran-3-carboxylic acid methylamide]
- EC50 [1, 3]: < 1 µM
- IC50 [2]: ≤ 500 nM

Structure (SMILES): CNC(=O)c1c(-c2ccc(F)cc2)oc2cc(-c3c(C4CC4)noc3COC)c(OC)cc12 [Example 310, 6-(3-Cyclopropyl-5-methoxymethyl-isoxazol-4-yl)-2-(4-fluoro-phenyl)-5-methoxy-benzofuran-3-carboxylic acid methylamide]
- EC50 [1, 3]: < 1 µM
- IC50 [2]: ≤ 500 nM

Structure (SMILES): CNC(=O)c1c(-c2ccc(F)cc2)oc2cc(N(C)S(C)(=O)=O)c(OCc3ccc(C(=O)O)cc3)cc12 [Example 311, 4-[2-(4-Fluoro-phenyl)-6-(methanesulfonyl-methyl-amino)-3-methylcarbamoyl-benzofuran-5-yloxymethyl]-benzoic acid]
- EC50 [1, 3]: < 10 µM
- IC50 [2]: ≤ 500 nM

Structure (SMILES): CNC(=O)c1c(-c2ccc(F)cc2)oc2cc(N(C)S(C)(=O)=O)c(OCc3cccc(C(=O)O)c3)cc12 [Example 312, 3-[2-(4-Fluoro-phenyl)-6-(methanesulfonyl-methyl-amino)-3-methylcarbamoyl-benzofuran-5-yloxymethyl]-benzoic acid]
- EC50 [1, 3]: < 1 µM
- IC50 [2]: ≤ 500 nM

Structure (SMILES): CNC(=O)c1c(-c2ccc(F)cc2)oc2cc(-c3cc(COC)on3)c(OC)cc12 [Example 313, 2-(4-Fluoro-phenyl)-5-methoxy-6-(5-methoxymethyl-isoxazol-3-yl)-benzofuran-3-carboxylic acid methylamide]
- EC50 [1, 3]: < 1 µM
- IC50 [2]: ≤ 500 nM

Structure (SMILES): CNC(=O)c1c(-c2ccc(F)cc2)oc2cc(-c3c(C)noc3C)c(O)cc12 [Example 314, 6-(3,5-Dimethyl-isoxazol-4-yl)-2-(4-fluoro-phenyl)-5-hydroxy-benzofuran-3-carboxylic acid methylamide]
- EC50 [1, 3]: < 1 µM
- IC50 [2]: ≤ 500 nM

Structure (SMILES): CNC(=O)c1c(-c2ccc(F)cc2)oc2cc(C3CNC(=O)C3)c(OC)cc12 (stereo not shown) [Example 315, 2-(4-Fluoro-phenyl)-5-methoxy-6-(5-oxo-pyrrolidin-3-yl)-benzofuran-3-carboxylic acid methylamide]
- EC50 [1, 3]: < 10 µM
- IC50 [2]: ≤ 500 nM
